Reference: patent US20250205195A1, “BENZYLOXY-BENZYLAMINYL AMINO ACID DERIVATIVE FOR ADJUSTING TSLP/TSLPR SIGNAL TRANSMISSION” (AMTIXBIO CO., LTD., priority 2021, published 2025)

Key:
interleukin-6 (IL-6) = assay: TNF-α/IFN-induced interleukin-6 in HaCaT keratinocytes (ELISA); assay type: cell-based, human; details: HaCaT cells, 0, 1, 2, 4 and 8 µg/mL, TNF-α and IFN 50 ng/mL each, 24 h
Description: Furthermore, human keratinocyte HaCaT cells (obtained from the Korean Cell Line Bank) were seeded at an initial density of 2×10^5 cells/well in a 12-well plate and cultured at 37° C. for 16 to 24 hours. The compound 27 of the present invention was then added to the HaCaT cell culture medium at final concentrations of 0, 1, 2, 4, and 8 µg/mL and the cells were cultured at 37° C. for 1 hour. Subsequently, to induce interleukin-6, the culture medium was treated with TNF-α (Sigma-Aldrich, USA) and […] (Sigma-Aldrich, USA) to final concentrations of 50 ng/mL each, and the cells were cultured for an additional 24 hours at 37° C. Next, the culture supernatant was collected, and the amount of induced interleukin-6 from HaCaT cells was determined using an ELISA kit (LABIS KOMA, South Korea) according to the manufacturer's instructions.
Human keratinocyte HaCaT cells (obtained from the Korean Cell Line Bank) were seeded in a 12-well plate at an initial density of 2×10^5 cells/well and cultured at 37° C. for 16 to 24 hours. […] The culture supernatant was collected, and the amount of induced interleukin-6 from HaCaT cells was determined using an ELISA kit (LABIS KOMA, South Korea) according to the manufacturer's instructions.

interleukin-4 (IL-4) = assay: PMA/ionomycin-induced interleukin-4 in RBL-2H3 cells (ELISA); assay type: cell-based, rat; details: RBL-2H3 cells, 0, 1, 2, 4 and 8 µg/mL, 24 h
Description: Rat basophilic leukemia cells RBL-2H3 (obtained from the Korean Cell Line Bank) were seeded at an initial density of 2×10^5 cells/well in a 48-well plate and cultured at 37° C. for 16 to 24 hours. Subsequently, compound 27 of the present invention was added to the RBL-2H3 cell culture medium at final concentrations of 0, 1, 2, 4, and 8 µg/mL and the cells were cultured at 37° C. for 1 hour. Next, to induce interleukin-4, the culture medium was treated with PMA ([…], Sigma-Aldrich, USA) and ionomycin (Sigma-Aldrich, USA) to final concentrations of 50 ng/mL and […], respectively, and the cells were cultured for an additional 24 hours at 37° C. The culture supernatant was then collected, and the amount of induced interleukin-4 from RBL-2H3 cells was determined using an ELISA kit (LABIS KOMA, South Korea) according to the manufacturer's instructions. FIG. 2 (a) represents the results.

TSLP = assay: TNF-α-induced TSLP in HaCaT cells (ELISA); assay type: cell-based, human
Description: Human keratinocyte HaCaT cells (obtained from the Korean Cell Line Bank) were seeded in a 12-well plate at an initial density of 2×10^5 cells/well and cultured at 37° C. for 16 to 24 hours. FK506 (Sigma), compounds 27 and 29 of the present invention were then added to the HaCaT cell culture medium at final concentrations of 0, 1, 2, 4, and 8 µg/mL, and the cells were cultured at 37° C. for 1 hour. Next, to induce TSLP, the culture medium was treated with TNF-α (Sigma-Aldrich, USA) to a final concentration of 100 ng/mL, and the cells were cultured for an additional 24 hours at 37° C. The culture supernatant was collected, and the amount of induced TSLP from HaCaT cells was determined using an ELISA kit (R&D Systems, USA) according to the manufacturer's instructions. […] Under the same conditions, to compare the TSLP reduction efficiency R.R. (Reduction rate) of compound 27, positive control compound and compound 29, equal amounts of compounds 27, 29 and FK506 (Sigma-Aldrich, USA) were pretreated for 1 hour. The amount of TSLP released into the culture supernatant from HaCaT cells stimulated by TNF-α was quantitatively analyzed and presented in Table 3 and FIG. 3 (c).

[1] = test system: DNFB-induced atopic dermatitis mice; assay: DNFB-induced atopic dermatitis mouse model, itch scratching test; assay type: in vivo, ICR mice; details: 1˜10 mg/kg, ip, po or topical, daily for one week, 30 min recording, vs control group
Description: ICR mice (Supplier: Koatech, Gyeonggi, South Korea, Male, 9 weeks old) were used. After acclimatization to the environment for one week, the mice were divided into treatment and control groups, and then hair was removed from the area (dorsal area) where the drug was applied on day 0, 0.5% DNFB (50 μL) diluted in 99% acetone, was applied to the dorsal area. Subsequently, on days 5, 8, 10 and 14, additional applications of 0.2% DNFB (20 μL) were applied to induce atopic dermatitis. After 7 days of DNFB treatment, once skin lesions were confirmed in all mice, compound 27 of the present invention was administered daily for one week via intraperitoneal (ip), oral (po), or topical (dermal) routes.
For the groups treated with the compound 27 of the present invention (1˜10 mg/kg) and the control group, mice were separated on days 5, 8, 11 and 15, acclimatized for 1 hour, and their scratching behavior patterns were recorded and analyzed for 30 minutes.

[2] = HaCaT culture supernatant, TNF-α stimulated, 1 h pretreatment, equal amounts of compounds

CCC(NC)C(=O)NCc1ccc(OCc2ccc(C(F)(F)F)cc2)cc1 (racemic) [Compound 27, (R)/(S)-2-(methylamino)-N-(4-((4-trifluoromethyl)benzyl)oxy)benzyl)butanamide]
amount of induced interleukin-6 (interleukin-6 (IL-6)): decreased | amount of induced interleukin-4 (interleukin-4 (IL-4)): decreased proportionally | amount of induced TSLP with increasing concentration (TSLP; HaCaT cells, 0, 1, 2, 4 and 8 µg/mL, TNF-α 100 ng/mL, 24 h): decreased | R.R (Reduction rate) of TSLP (TSLP; [2]): 54% | TSLP (TSLP; [2]): 234 ng/mL | scratching frequency [1]: significantly decreased
